# Biological target: T1, adGlnK (adenylylated GlnK) (Corynebacterium glutamicum, UniProt H7C694)
# T1 construct: gene glnB; full length, untagged (stop codon inserted before Xa-Strep tag), produced in C. glutamicum; Tyr51 O-adenylylated (AMP covalently attached); homotrimer, hexamer in crystal; 112 residues
# Test: X-ray crystal structure, […] A
# Type: binding
# Conditions: fortuitously bound, co-purified (no nucleotide added), one of six effector sites at subunit interface, Tyr51 adenylylated, Mg, Ca, pH 7.1, 292 K
# T1 sequence (H7C694 entry or part of it): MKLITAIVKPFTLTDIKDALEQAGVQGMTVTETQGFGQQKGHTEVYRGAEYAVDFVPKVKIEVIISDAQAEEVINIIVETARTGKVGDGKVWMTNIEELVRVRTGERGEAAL
SMILES,"X-ray crystal structure, 1.8 A","X-ray crystal structure, 1.8 A (non-covalent AMP in ATP-binding pocket, distinct from)"
Nc1ncnc2c1ncn2[C@@H]1O[C@H](COP(=O)(O)OP(=O)(O)O)[C@@H](O)[C@H]1O [ADP],fortuitous binding of AMP and ADP was observed in the remaining two binding sites,–
Nc1ncnc2c1ncn2[C@@H]1O[C@H](COP(=O)(O)O)[C@@H](O)[C@H]1O [AMP],–,fortuitous binding of AMP and ADP was observed in the remaining two binding sites
